The values that follow come from PubChem BioAssay AID330 (DTP/NCI, 2004).

Values joined by “and” are separate entries in the source; they are usually repeats but may differ in a detail not shown here. Identical values can stand only once. Toxic doses and inconclusive results are not listed.

The test system of the assay is P388 leukemia ip, CD2F1 mice, survival T/C. As to the kind of experiment: NCI In Vivo Anticancer Drug Screen. Data for tumor model P388 Leukemia (intraperitoneal) in CD2F1 (CDF1) mice. The note with it: endpoint: median survival time, higher = longer survival. An outline of the steps: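 Mice carrying the transplanted tumor received test compound or vehicle. Survival was recorded in each group, and the value is the treated-group measurement divided by that of the vehicle-treated control group.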

The mark [1] stands for this setting: dose: 50.0 mg/kg/injection, schedule: Q01DX005 (ip), vehicle: saline with Tween-80.
Setting [2] is: dose: 100.0 mg/kg/injection, schedule: Q01DX005 (ip), vehicle: saline with Tween-80.
Where [3] appears, read: dose: 200.0 mg/kg/injection, schedule: Q01DX005 (ip), vehicle: saline with Tween-80.
[4] abbreviates: dose: 50.0 mg/kg/injection, schedule: Q01DX005 (ip), vehicle: Klucel (hydroxypropylcellulose) (HPC).
Where [5] appears, read: dose: 100.0 mg/kg/injection, schedule: Q01DX005 (ip), vehicle: Klucel (hydroxypropylcellulose) (HPC).
The mark [6] stands for this setting: dose: 200.0 mg/kg/injection, schedule: Q01DX005 (ip), vehicle: Klucel (hydroxypropylcellulose) (HPC).
The mark [7] stands for this setting: dose: 50.0 mg/kg/injection, schedule: Q04DX002 (ip), vehicle: Klucel (hydroxypropylcellulose) (HPC).
Setting [8] is: dose: 50.0 mg/kg/injection, schedule: Q01DX005 (ip), vehicle: saline.
Setting [9] is: dose: 100.0 mg/kg/injection, schedule: Q01DX005 (ip), vehicle: saline.
The mark [10] stands for this setting: dose: 6.25 mg/kg/injection, schedule: Q01DX009 (ip), vehicle: Klucel (hydroxypropylcellulose) (HPC).
The mark [11] stands for this setting: dose: 12.5 mg/kg/injection, schedule: Q01DX009 (ip), vehicle: Klucel (hydroxypropylcellulose) (HPC).
[12] abbreviates: dose: 25.0 mg/kg/injection, schedule: Q01DX009 (ip), vehicle: Klucel (hydroxypropylcellulose) (HPC).

As to `COc1cc2c(cc1OC)C(C#N)N(C(=O)c1ccccc1)C=C2` (centres undefined), the T/C reads like this: (dose: 0.1 mg/kg/injection, schedule: Q01DX009 (ip), vehicle: water) 98 % of control; (dose: 0.19 mg/kg/injection, schedule: Q01DX009 (ip), vehicle: water) 100 % of control; (dose: 0.38 mg/kg/injection, schedule: Q01DX009 (ip), vehicle: water) 98 % of control; (dose: 0.75 mg/kg/injection, schedule: Q01DX009 (ip), vehicle: water) 100 % of control; (dose: 1.5 mg/kg/injection, schedule: Q01DX009 (ip), vehicle: water) 100 % of control.

Consider `O=C(O)c1cc(F)cc(C(=O)O)c1`, for which the T/C is, setting by setting: (dose: 50.0 mg/kg/injection, schedule: Q04DX003 (ip), vehicle: suspension in saline) 109 % of control; (dose: 100.0 mg/kg/injection, schedule: Q04DX003 (ip), vehicle: suspension in saline) 104 % of control; (dose: 200.0 mg/kg/injection, schedule: Q04DX003 (ip), vehicle: suspension in saline) 110 % of control.

For `COC(=O)C1=C(C(=O)OC)C2CCCOC2=C(C)C1` (centres undefined), the T/C under setting [1] was 96 % of control, the T/C under setting [2] was 95 % of control and the T/C under setting [3] is 93 % of control.

For `CC1(C)OC2CC(=O)OCC23C1CC(=O)C1(C)C2=CC(=O)OC(c4ccoc4)C2(C)CCC13` (centres undefined), the T/C is, setting by setting: (dose: 0.5 mg/kg/injection, schedule: Q01DX009 (ip), vehicle: saline + alcohol) 106 % of control; (dose: 1.0 mg/kg/injection, schedule: Q01DX009 (ip), vehicle: saline + alcohol) 108 % of control; (dose: 2.0 mg/kg/injection, schedule: Q01DX009 (ip), vehicle: saline + alcohol) 101 % of control; (dose: 4.0 mg/kg/injection, schedule: Q01DX009 (ip), vehicle: saline + alcohol) 105 % of control.

In the case of `O=C(O)c1cccnc1C(=O)Nc1cccc2ccccc12`, the T/C reads like this: (dose: 15.0 mg/kg/injection, schedule: Q01DX005 (ip), vehicle: saline with Tween-80) 102 % of control; (dose: 30.0 mg/kg/injection, schedule: Q01DX005 (ip), vehicle: saline with Tween-80) 98 % of control; (dose: 60.0 mg/kg/injection, schedule: Q01DX005 (ip), vehicle: saline with Tween-80) 99 % of control (2×) and 93 % of control; (dose: 240.0 mg/kg/injection, schedule: Q01DX005 (ip), vehicle: saline with Tween-80) 86 % of control and 92 % of control.

With `CSCCC(NC(=O)C(Cc1c[nH]c2ccccc12)NC(=O)CCNC(=O)OC(C)(C)C)C(=O)NC(CC(=O)O)C(=O)NC(Cc1ccccc1)C(N)=O` (centres undefined), the T/C under setting [4] is 98 % of control, the T/C under setting [5] was 100 % of control and the T/C under setting [6] was 97 % of control.

Consider `Cc1nc2cc3c(=O)n(C)cnc3cc2n1Cc1ccccc1`, for which the T/C reads like this: (dose: 12.5 mg/kg/injection, schedule: Q04DX002 (ip), vehicle: Klucel (hydroxypropylcellulose) (HPC)) 104 % of control; (dose: 25.0 mg/kg/injection, schedule: Q04DX002 (ip), vehicle: Klucel (hydroxypropylcellulose) (HPC)) 104 % of control; under setting [7], 107 % of control.

For `NC(N)=NS(=O)(=O)c1ccc([N+](=O)[O-])cc1`, the T/C (dose: 12.5 mg/kg/injection, schedule: Q01DX009 (ip), vehicle: saline with Tween-80) is 103 % of control; the T/C (dose: 25.0 mg/kg/injection, schedule: Q01DX009 (ip), vehicle: saline with Tween-80) was 107 % of control; the T/C (dose: 50.0 mg/kg/injection, schedule: Q01DX009 (ip), vehicle: saline with Tween-80) was 111 % of control.

Consider `Fc1ccccc1/C=C/c1ccnnc1`, for which the T/C is, setting by setting: (dose: 50.0 mg/kg/injection, schedule: Q01DX009 (ip), vehicle: saline) 94 % of control; (dose: 100.0 mg/kg/injection, schedule: Q01DX009 (ip), vehicle: saline) 95 % of control; (dose: 200.0 mg/kg/injection, schedule: Q01DX009 (ip), vehicle: saline) 103 % of control.

Consider `O=NNc1ccc(I)cn1`, for which the T/C was 170 % of control (dose: 6.25 mg/kg/injection, schedule: Q01DX009 (ip), vehicle: water); 173 % of control and 190 % of control (dose: 12.5 mg/kg/injection, schedule: Q01DX009 (ip), vehicle: water).

On to `C=CC1CC(NC(=O)OCCCC)C(=O)O1` (centres undefined), for which the T/C was 99 % of control under setting [1], 101 % of control under setting [2] and 102 % of control under setting [3].

Take `CC12C3=CC=C4C=CC=C(c5ccccc5C1=CC=C3)C42C` (centres undefined): the T/C is 100 % of control under setting [7]; 111 % of control (dose: 100.0 mg/kg/injection, schedule: Q04DX002 (ip), vehicle: Klucel (hydroxypropylcellulose) (HPC)); 107 % of control (dose: 200.0 mg/kg/injection, schedule: Q04DX002 (ip), vehicle: Klucel (hydroxypropylcellulose) (HPC)).

On to `CCCNC(=O)N1C2C3CCC(C)(OC3(C)C)C21` (centres undefined), for which the T/C was 106 % of control under setting [8]; 100 % of control under setting [9]; 98 % of control (dose: 200.0 mg/kg/injection, schedule: Q01DX005 (ip), vehicle: saline).

Regarding `c1cc(C2N3CCCN2CC3)ccn1` (centres undefined), the T/C runs as follows: (dose: 3.12 mg/kg/injection, schedule: Q01DX009 (ip), vehicle: saline) 104 % of control; (dose: 12.5 mg/kg/injection, schedule: Q01DX009 (ip), vehicle: saline) 103 % of control; (dose: 25.0 mg/kg/injection, schedule: Q01DX009 (ip), vehicle: saline) 110 % of control.

On to `NC(=O)c1c[n+]([O-])ccc1[N+](=O)[O-]`, for which the T/C under setting [10] is 108 % of control; the T/C under setting [11] was 117 % of control; the T/C under setting [12] is 117 % of control; the T/C (dose: 50.0 mg/kg/injection, schedule: Q01DX009 (ip), vehicle: Klucel (hydroxypropylcellulose) (HPC)) is 119 % of control.

Turning to `CC1COC2(CC1OC(=O)/C=C/c1ccccc1)OC1CC(C(=O)OC3OC(C)C(O)C(O)C3OC3OC(C)C(O)C(O)C3O)CCC1C21CO1` (centres undefined), the T/C is, setting by setting: (dose: 1.88 mg/kg/injection, schedule: Q01DX005 (ip), vehicle: saline + alcohol) 106 % of control; (dose: 3.75 mg/kg/injection, schedule: Q01DX005 (ip), vehicle: saline + alcohol) 106 % of control; (dose: 7.5 mg/kg/injection, schedule: Q01DX005 (ip), vehicle: saline + alcohol) 111 % of control and 118 % of control; (dose: 15.0 mg/kg/injection, schedule: Q01DX005 (ip), vehicle: saline + alcohol) 118 % of control; (dose: 60.0 mg/kg/injection, schedule: Q01DX005 (ip), vehicle: saline + alcohol) 153 % of control.

As for `O=C(Cc1nc2ccccc2[nH]1)NNC(=S)Nc1ccc(Cl)cc1`, the T/C (dose: 60.0 mg/kg/injection, schedule: Q01DX005 (ip), vehicle: Klucel (hydroxypropylcellulose) (HPC)) was 88 % of control and the T/C (dose: 120.0 mg/kg/injection, schedule: Q01DX005 (ip), vehicle: Klucel (hydroxypropylcellulose) (HPC)) is 86 % of control.

Regarding `O=c1ccs[nH]1`, the T/C (dose: 3.12 mg/kg/injection, schedule: Q01DX009 (ip), vehicle: Klucel (hydroxypropylcellulose) (HPC)) is 100 % of control; the T/C under setting [10] was 102 % of control and 104 % of control and 117 % of control; the T/C under setting [11] is 102 % of control and 114 % of control and 124 % of control; the T/C under setting [12] is 100 % of control and 90 % of control.

`CC1(C)CC(=O)C2=C(C1)CC1(C)CC(C)(C)CC2(OC(=O)Cc2ccccc2)C1` (centres undefined): the T/C is 98 % of control under setting [4], 95 % of control under setting [5] and 92 % of control under setting [6].

Consider `CN(C)CCC(=O)c1ccc(C(=O)CCN(C)C)cc1`, for which the T/C by setting is: (dose: 25.0 mg/kg/injection, schedule: Q01DX005 (ip), vehicle: saline) 108 % of control; under setting [8], 107 % of control; under setting [9], 107 % of control.

On to `Oc1cc(-c2ccc(Cl)cc2)c(O)cc1CN1CCOCC1`, for which the T/C is 92 % of control (dose: 100.0 mg/kg/injection, schedule: Q04DX002 (ip), vehicle: saline with Tween-80); 91 % of control (dose: 200.0 mg/kg/injection, schedule: Q04DX002 (ip), vehicle: saline with Tween-80); 92 % of control (dose: 400.0 mg/kg/injection, schedule: Q04DX002 (ip), vehicle: saline with Tween-80).
